What was measured:
HOS = assay: In vitro cytotoxic activity, Calcein AM assay, HOS; type: cell-based; settings: 72 hours
[1] = tested on: human erythroleukaemia K562; assay: In vitro cytotoxic activity, Calcein AM assay, K-562; type: cell-based; settings: 72 hours, read-out: IC 50 K-562
Summary of the method: (§1)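 10^4 cells/well, 24 h stabilisation; cpd 6 × 4-fold dilutions, top 166.7 μM, duplicates, 72 h, 37 °C, 5% CO2; Calcein AM 1 h, fluorescence vs untreated controls; GI50 from curve.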

[2] = tested on: breast carcinoma cell lines MCF-7; assay: In vitro cytotoxic activity, Calcein AM assay, MCF7; type: cell-based, human; settings: 72 hours, read-out: IC 50 MCF7
Summary of the method: as §1

mouse fibroblasts NIH3T3 = assay: In vitro cytotoxic activity, Calcein AM assay, NIH-3T3; type: cell-based; settings: 72 hours, read-out: IC 50 NIH-3T3
Summary of the method: as §1

[3] = tested on: human malignant melanoma cells G361; assay: In vitro cytotoxic activity, Calcein AM assay, G-361; type: cell-based; settings: 72 hours, read-out: IC 50 G-361
Description: One of the parameters used, as the basis for cytotoxicity assays, is the metabolic activity of viable cells. For example, a microtiter assay, which uses the Calcein AM, is now widely used to quantitate cell proliferation and cytotoxicity. For instance, this assay is used in drug screening programs and in chemosensitivity testing. Because only metabolically active cells cleave Calcein AM, these assays detect viable cells exclusively. The quantity of reduced Calcein AM corresponds to the number of vital cells in the culture.
Human T-lymphoblastic leukemia cell line CEM; promyelocytic HL-60 and monocytic U937 leukemias; breast carcinoma cell lines MCF-7; cervical carcinoma cells HELA; mouse fibroblasts NIH3T3; human erythroleukaemia K562 and human malignant melanoma cells G361 were used for routine screening of compounds. The cells were maintained in Nunc/Corning 80 cm^2 plastic tissue culture flasks and cultured in cell culture medium (DMEM with 5 g/l glucose, 2 mM glutamine, 100 U/ml penicillin, 100 μg/ml streptomycin, 10% fetal calf serum and sodium bicarbonate).
The cell suspensions that were prepared and diluted according to the particular cell type and the expected target cell density (10^4 cells per well based on cell growth characteristics) were added by pipette (80 μl) into 96/well microtiter plates. Inoculates were allowed a pre-incubation period of 24 hours at 37° C. and 5% CO2 for stabilisation. Four-fold dilutions of the intended test concentration were added at time zero in 20 μl aliquots to the microtiter plate wells. Usually, test compound was evaluated at six 4-fold dilutions. In routine testing, the highest well concentration was 166.7 μM, but it can be the matter of change dependent on the agent. All drug concentrations were examined in duplicates. Incubations of cells with the test compounds lasted for 72 hours at 37° C., in 5% CO2 atmosphere and 100% humidity. At the end of incubation period, the cells were assayed by using the Calcein AM. Ten microliters of the stock solution were pipetted into each well and incubated further for 1 hours. Fluorescence (FD) was measured with the Labsystem FIA Reader Fluoroscan Ascent (UK). The tumour cell survival (GI50) was calculated using the following equitation: GI50=(FDdrug exposed well/mean FDcontrol wells)×100%. The GI50 value, the drug concentration lethal to 50% of the tumour cells, was calculated from the obtained dose response curves (FIG. 3).

[4] = tested on: Human T-lymphoblastic leukemia cell line CEM; assay: In vitro cytotoxic activity, Calcein AM assay, CEM; type: cell-based; settings: 72 hours
Summary of the method: as §1

promyelocytic HL-60 = assay: In vitro cytotoxic activity, Calcein AM assay, HL60; type: cell-based, human; settings: 72 hours, read-out: IC 50 HL60
Summary of the method: as §1

Human lymphocytes = assay: Immunosuppressive activity: concanavalin A induced lymphocyte proliferation, [^3H]-TdR incorporation; type: cell-based; settings: 72 hours, read-out: Human lymphocytes ED50
Method: Human heparinized peripheral blood was obtained from healthy volunteers by cubital vein punction. The blood was diluted in PBS (1:3) and mononuclear cells were separated by centrifugation in Ficoll-Hypaque density gradient (Pharmacia, 1.077 g/ml) at 2200 rpm for 30 minutes. Following centrifugation, lymphocytes were washed in PBS and resuspended in cell culture medium (RMPI 1640, 2 mM glutamine, 100 U/ml penicillin, 100 μg/ml streptomycin, 10% fetal calf serum and sodium bicarbonate).
The cells were diluted at target density of 1,100,000 cells/ml were added by pipette (180 μl) into 96/well microtiter plates. Four-fold dilutions of the intended test concentration were added at time zero in 20 μl aliquots to the microtiter plate wells. Usually, test compound was evaluated at six 4-fold dilutions. In routine testing, the highest well concentration was 266.7 μM. All drug concentrations were examined in duplicates. All wells with exception of unstimulated controls were activated with 50 μl of concanavalin A (25 μg/ml). Incubations of cells with test compounds lasted for 72 hours at 37° C., in 5% CO2 atmosphere and 100% humidity. At the end of incubation period, the cells were assayed by using the [^3H]-TdR:
Cell cultures were incubated with 0.5 μCi (20 μl of stock solution 500 μCi/ml) per well for 6 hours at 37° C. and 5% CO2. The automated cell harvester was used to lyse cells in water and adsorb the DNA onto glass-fiber filters in the format of microtiter plate. The DNA incorporated [^3H]-TdR was retained on the filter while unincorporated material passes through. The filters were dried at room temperature overnight, sealed into a sample bag with 10-12 ml of scintillant. The amount of [^3H]-TdR present in each filter (in cpm) was determined by scintillation counting in a Betaplate liquid scintillation counter. The effective dose of immunosuppressant (ED) was calculated using the following equation: ED=(CCPMdrug exposed well/mean CCPMcontrol wells)×100%. The ED50 value, the drug concentration inhibiting proliferation of 50% of lymphocytes, was calculated from the obtained dose response curves.

[5] = tested on: human diploid fibroblasts (HCA cells); assay: Inhibition of senescence of mammal cells: β-galactosidase staining of senescent cells; type: cell-based; settings: for Senescent cells (%) HCA25: passage 25; for Senescent cells (%) HCA45: passage 45; for Senescent cells (%) HCA80: passage 80
Method: In this example, human diploid fibroblasts (HCA cells with different levels of passage: passage 25—labelling HCA25; passage 45—labelling HCA45; passage 80—labelling HCA80) were used for studying β-galactosidase activity. Medium used for cells cultivation was removed, cells were washed twice with PBS and fixed in 2-3 ml of fixation agent consisting of 2% of formaldehyde and 0.2% of flutaraldehyde in PBS. Cells were incubated at room temperature for 5 min and subsequently washed twice with PBS. Cells were then incubated at 37° C. (without CO2) for 1 to 16 hours in 2-3 ml of solution comprising potassium ferricyanide (5 mM), potassium ferrocyanide (5 mM), MgCl2 (2 mM), X-gal (5-bromo-4-chloro-3-indolyl-β-D-galactopyranoside) (1 mg/ml) in citrate/phosphate buffer, pH 6.0. […] In this experiment only senescent cells were labelled due to the effect of β-galactosidase on the substrate.

[6] = tested on: Amaranthus caudatus cotyledon/hypocotyl explants; assay: Amaranthus bioassay (betacyanin content); type: in vivo; settings: for Concentration with highest activity: 48 h dark; for Activity (%) [10^−5 mol · l^−1 BAP = 100%]: at concentration with highest activity
Summary of the method: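 Surface-sterilised Amaranthus caudatus var. atropurpurea seeds were germinated 72 h at 25° C. in darkness, then de-rooted. Cotyledon/hypocotyl explants (20 per dish) were incubated under green safe light on filter paper with 1 ml medium of 10 μmol NA2HPO4-KH2PO4, pH 6.8, 5 μmol tyrosine and cytokinin (10^-8M to 10^-4M) for 48 h at 25° C. in darkness. Betacyanin was extracted in […] acetic acid and measured by absorbance at 537 nm and 620 nm.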

[7] = tested on: Triticum aestivum cv. Hereward; assay: Senescence inhibition on winter wheat leaf segments (chlorophyll retention); type: in vivo
Summary of the method: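 Tip segments of the first leaf from 7-day wheat seedlings held, basal ends down, in cytokinin solutions (10^−8M to 10^−4M) for 96 h at 25° C in darkness. Chlorophyll extracted in 80% ethanol at 80° C, read at 665 nm; activity at best concentration given relative to 10^−4 M BAP (100%), means of five replicates.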

[8] = tested on: tobacco callus Nicotiana tabacum L. cv. Wisconsin 38; assay: Growth of cytokinin-dependent tobacco callus; type: cell-based

Compound	IC50 (HOS)	IC50 [1]	IC50 [2]	IC50 (mouse fibroblasts NIH3T3)	IC50 [3]	IC50 [4]	IC50 (promyelocytic HL-60)	EC50 (Human lymphocytes)	Senescent cells (%) HCA25 [5]	Senescent cells (%) HCA45 [5]	Senescent cells (%) HCA80 [5]	Concentration with highest activity [6]	Activity (%) [10^−5 mol · l^−1 BAP = 100%] [6]	Concentration with highest activity ([7]; chlorophyll retention in excised wheat leaf tips, 96 h dark)	Activity (%) [10^−4 mol · l^−1 BAP = 100%] ([7]; chlorophyll retention, at concentration with highest activity)	Activity (%) [10^−5 mol · l^−1 BAP = 100%] ([8]; callus growth, at concentration with highest activity)	Concentration with highest activity ([8]; fresh callus weight after four weeks)
OC[C@H]1O[C@@H](n2cnc3c(NCc4cccc(Cl)c4O)ncnc32)[C@H](O)[C@@H]1O [2-hydroxy-3-chlorobenzylamino, 6-(2-hydroxy-3-chlorobenzylamino)purine riboside]	> 167 µM	10.7 µM	15 µM	> 167 µM	128 µM	0.3 µM	0.1 µM	2.1 µM	–	–	–	–	–	–	–	–	–
c1coc(CNc2ncnc3[nH]cnc23)c1 [Kinetin, reference compound]	–	–	–	–	–	–	–	–	3%	5%	25%	–	–	–	–	–	–
OC[C@H]1O[C@@H](n2cnc3c(NCc4ccccc4O)ncnc32)[C@H](O)[C@@H]1O [2-hydroxybenzylamino, 6-(2-hydroxybenzylamino)purine riboside]	2.8 µM	88 µM	11.4 µM	43.2 µM	> 167 µM	0.7 µM	0.42 µM	4.8 µM	–	–	–	–	–	–	–	–	–
Nc1cc(CNc2ncnc3c2ncn3[C@@H]2O[C@H](CO)[C@@H](O)[C@H]2O)ccc1Cl [3-amino-4-chlorobenzylamino, 6-(3-amino-4-chlorobenzylamino)purine riboside]	–	–	–	–	–	–	–	–	4%	6%	22%	–	–	–	–	–	–
COc1ccc(CNc2ncnc3c2ncn3[C@@H]2O[C@H](CO)[C@@H](O)[C@H]2O)c(O)c1 [2-hydroxy-4-methoxybenzylamino, 6-(2-hydroxy-4-methoxybenzylamino)purine riboside]	–	–	–	–	–	–	–	1.5 µM	–	–	–	–	–	–	–	–	–
OC[C@H]1O[C@@H](n2cnc3c(NCc4cccc(O)c4)ncnc32)[C@H](O)[C@@H]1O [3-hydroxybenzylamino, 6-(3-hydroxybenzylamino)purine riboside]	> 167 µM	> 167 µM	> 167 µM	> 167 µM	> 167 µM	51.9 µM	23.7 µM	10.7 µM	–	–	–	–	–	–	–	–	–
OC[C@H]1O[C@@H](n2cnc3c(NCc4ccc(O)c(O)c4)ncnc32)[C@H](O)[C@@H]1O [3,4-dihydroxybenzylamino, 6-(3,4-dihydroxybenzylamino)purine riboside]	–	–	–	–	–	–	–	8.3 µM	–	–	–	10^−4 mol · l^−1	8 ± 3%	–	–	–	–
COc1cccc(CNc2ncnc3c2ncn3[C@@H]2O[C@H](CO)[C@@H](O)[C@H]2O)c1OC [2,3-dimethoxybenzylamino, 6-(2,3-dimethoxybenzylamino)purine riboside]	> 167 µM	> 167 µM	> 167 µM	> 167 µM	–	> 167 µM	109 µM	–	4%	5%	18%	10^−4 mol · l^−1	21 ± 7%	10^−4 mol · l^−1	106 ± 17%	5 ± 2%	10^−6 mol · l^−1
